# Measured values taken from patent US10106797B2, “Methods for suppressing adipocyte differentiation” (SEOUL NATIONAL UNIVERSITY R&DB FOUNDATION, priority 2013, dated 2018).
# Legend:
# [1] = test system: C/EBP-β; assay: Quantitative RT-PCR of C/EBP-β mRNA in 3T3-L1 cells; type: cell-based, mouse
# Description: (§1) HEK293 (human embryonic kidney) cells were obtained from the American Type Culture Collection (Manassas, Va.). 3T3-L1 and 3T3-F442A preadipocytes were kindly given by Dr. Jae-Woo Kim (Yonsei University, Seoul, Korea). Cells were cultured in DMEM supplemented with 10% fetal bovine serum (FBS). Differentiation of 3T3-L1 cells was induced with 1 μM dexamethasone, 500 μM 3-isobutyl-a-methylxanthine, and 5 μg/ml of insulin (DMI), which is designated DMI. From 2 to 8 days after DMI treatment, cells were maintained in DMEM containing 10% FBS and 1 μg/ml of insulin and the medium was changed every other day. Adipocyte differentiation of hADSCs was induced with DMI and 200 μM indomethacin in α-MEM supplemented with 10% FBS. Cells were incubated in 5% CO2 and 20% O2 at 37° C.
# (§2) Total RNAs were isolated from cultured cells using TRIzol® (Invitrogen). The EasyScript™ cDNA Synthesis Kit (Applied Biological Materials Inc., Richmond, Canada) was used to synthesize cDNAs. The level of each cDNA was relatively quantified by being divided by the 18S rRNA level in the corresponding sample.
# [2] = test system: PPAR-v; assay: Quantitative RT-PCR of PPAR-v mRNA in 3T3-L1 cells; type: cell-based, mouse
# Description: as §1, §2
# [3] = test system: PPAR-v; assay: Western blotting of PPAR-v protein expression in 3T3-L1 cells; type: cell-based, mouse
# Description: as §1
# (§3) Proteins in cell lysates were electrophoresed on SDS-polyacrylamide gels and transferred to Immobilon-P membranes (Millipore, Billerica, Mass.). Membranes were preincubated with 5% skim milk in TTBS (Tris-buffered saline containing 0.1% Tween 20) for 30 min and incubated overnight with primary antibody diluted 1:500 to 1:3000 in the TTBS. The membranes were further incubated with a horseradish peroxidase conjugated secondary antibody for 1 h and visualized using Pierce ECL Plus western blotting substrate according to the manufacturer's instruction (Thermo Fisher Scientific, Waltham, Mass.).
# [4] = test system: CD36; assay: Quantitative RT-PCR of CD36 mRNA in 3T3-L1 cells; type: cell-based, mouse
# Description: as §1, §2
# [5] = test system: 3T3-L1 cells; assay: Adipocyte differentiation of 3T3-L1 cells, Oil-red O staining; type: cell-based, mouse; conditions: for adipose differentiation: amount dependent
# Description: as §1
# Adipocytes were fixed with 3.7% of formalin and stained with 0.3% Oil-red-O solution (Sigma-Aldrich) dissolved in isopropanol. 0.5% Oil-red-O (Sigma-Aldrich) was dissolved in isopropanol. Oil-red-O stock solution and H2O were mixed at a ratio of 6:4 and filtered. Then 60% Oil-red-O stock solution was incubated with the cells for 1 h and washed with distilled water and scanned for image.
# [6] = test system: FABP4; assay: Quantitative RT-PCR of FABP4 mRNA in 3T3-L1 cells; type: cell-based, mouse
# Description: as §1, §2
# [7] = test system: C/EBP-β; assay: Western blotting of C/EBP-β protein expression in 3T3-L1 cells; type: cell-based, mouse; conditions: FIG. 1E
# Description: as §1, §3
# [8] = test system: PPAR-v; assay: Ubiquitination of PPAR-v, western blotting; type: cell-based; conditions: neddylation inhibited using siNEDD8; FIG. 3E
# Description: as §3
# To precipitate HA-tagged proteins, transfected cells were lysed in a buffer containing 5 mM EDTA, 50 mM Tris-Cl, 100 mM NaCl, 0.1% NP-40, and the protease inhibitor cocktail (Sigma-Aldrich). Cell lysates (1 mg proteins) were incubated with EZview™ anti-HA affinity beads sequentially incubated with a primary antibody (10 μg/mL) and protein A/G-Sepharose beads (GE Healthcare, Uppsala, Sweden) at 4° C. for 4 h. Pull down proteins were eluted in a 2×SDS denaturing buffer and subjected to Western blotting as described above. For HA-bead immunoprecipitation, 1 mg of protein was incubated with 10 ul of HA-bead at 4° C. for 4 h and washed. Then proteins were eluted in a 2×SDS denaturing buffer and electrophoresed in a SDS-PAGE gel and subjected to Western blotting as described above.
# [9] = 3T3-L1 cells treated with 0.5 μM MLN4924 before the differentiation, 0, 2, 4, 6, 8 days, FIG. 2B
# [10] = siNEDD8 knock down, PCR at 0, 2, 4, 6, and 8 days after start of differentiation, FIG. 1F
# [11] = knock down after the cells were induced to differentiation, FIG. 1D
compound,measurement,setting,value
"NS(=O)(=O)OC[C@@H]1C[C@@H](n2ccc3c(N[C@H]4CCc5ccccc54)ncnc32)C[C@@H]1O [MLN4924, reference compound]",C/EBP-β at the mRNA level,[1]; [9],decreased
same,PPAR-v at the mRNA level,[2]; [9],decreased
same,expression of PPAR-v protein,"[3]; 3T3-L1 cells treated with MLN4924 after the differentiation was induced, FIG. 2A",suppresses
same,CD36 at the mRNA level,[4]; [9],decreased
same,differentiation of 3T3L1 cells into adipocytes,"[5]; MLN4924 0.1 and 0.5 μM, before and after differentiation was induced, Oil-red O, FIG. 2A",suppressed
same,FABP4 at the mRNA level,[6]; [9],decreased
"COc1ccc(C2=NC(c3ccc(Cl)cc3)C(c3ccc(Cl)cc3)N2C(=O)N2CCNC(=O)C2)c(OC(C)C)c1 (stereo not drawn) [nutlin-3, 4-[4,5-Bis(4-chlorophenyl)-2-(2-isopropoxy-4-methoxy-phenyl)-4,5-dihydro-imidazole-1-carbonyl]-piperazin-2-one, reference compound]",adipose differentiation,"[5]; nutlin-3 10 and 20 μM, before and after differentiation was induced, FIG. 5D",suppressed
"siMDM2: MDM2 siRNA used in 3T3-L1; probably the mouse one, SEQ ID NO: 8, 5′-GCAAUGAUCUACAGAAAUUUAGUGG-3′ (other strand not given here)",adipose differentiation,"[5]; 3T3-L1 transfected with siMDM2 10, 20 or 50 nM, differentiation induced after 2 days, FIG. 5C",suppressed
"siNEDD8: siRNA against NEDD8; Table 1 siNEDD8 is human, SEQ ID NO: 1; text does not say which sequence was used in 3T3-L1 (CAGACAAGGUGGAGCGAAUCAAGGA; other strand not given here)",mRNA expression level of C/EBP-β,[1]; [10],decreased
same,mRNA expression level of PPAR-v,[2]; [10],decreased
same,expression of PPAR-v,[3]; [11],suppressed
same,expression of PPAR-v,"[3]; knock down before induction, 0, 2, 4, 6 and 8 days during differentiation, compared to control, time dependent, FIG. 1E",decreased
same,mRNA expression level of CD36,[4]; [10],decreased
same,adipogenesis,[5]; [11],suppressed
same,expression of C/EBP-β,"[7]; 0, 2, 4, 8, 16, 24 h after the initiation of differentiation",decreased
same,expression of C/EBP-β,"[7]; knock down before induction, 0, 2, 4, 6 and 8 days during differentiation, compared to control, time dependent",decreased
same,mRNA expression level of FABP4,[6]; [10],decreased
same,ubiquitination of PPAR-v,[8],increased
